In US4382089A, “Antibacterial amide compounds, compositions thereof and methods of using them” (Warner-Lambert Company, priority 1982, dated 1983):

Legend:
Test in all cases: Antibacterial activity in vitro, Minimal Inhibitory Concentration
Type in all cases: cell-based
[1] = test system: Entero C. IMM-11
Text: (§1) The compounds of the invention are new chemical compounds that are used as pharmacological agents and especially as broad spectrum antibacterial agents. They are active in vitro against strains of both gram-positive and gram-negative bacteria. The activity of the compounds is illustrated by the results shown in the table for certain of the preferred compounds.

[2] = test system: Staph Aureus UC-76
Text: as §1

[3] = test system: Prot. Vulg. 1810
Text: as §1

[4] = test system: Klebs. Pneu. MGH-2
Text: as §1

[5] = test system: E. Coli Brig
Text: as §1

[6] = test system: E. Coli Vogel
Text: as §1

[7] = test system: Serr. Mar. IMM-16
Text: as §1

[8] = test system: Pseudo. Aeru 28
Text: as §1

[9] = test system: Pseudo. Aeru BRK
Text: as §1

[10] = test system: Pseudo. Aeru UI-18
Text: as §1

Row | Compound | Minimal Inhibitory Concentration [1] [µg/mL] | Minimal Inhibitory Concentration [2] [µg/mL] | Minimal Inhibitory Concentration [3] [µg/mL] | Minimal Inhibitory Concentration [4] [µg/mL] | Minimal Inhibitory Concentration [5] [µg/mL] | Minimal Inhibitory Concentration [6] [µg/mL] | Minimal Inhibitory Concentration [7] [µg/mL] | Minimal Inhibitory Concentration [8] [µg/mL] | Minimal Inhibitory Concentration [9] [µg/mL] | Minimal Inhibitory Concentration [10]
1 | CC(=O)N1CC(O)CC1C(=O)Nc1ccc2[nH]c(=O)c(C(=O)NC(C(=O)NC3C(=O)N4C3SC(C)(C)C4C(=O)O)c3ccc(O)cc3)cc2c1 (stereo not drawn) [N-[6-[[(1-Acetyl-4-hydroxy-2-pyrrolidinyl)carbonyl]-amino]-1,2-dihydro-2-oxo-3-quinolinylcarbonyl]amoxicillin] | 6.3 | 0.8 | 3.1 | 25 | 12.5 | 6.3 | 25 | 1.6 | 3.1 | 1.6 µg/mL
2 | CC(=O)NC(C)C(=O)Nc1ccc2[nH]c(=O)c(C(=O)NC(C(=O)NC3C(=O)N4C3SC(C)(C)C4C(=O)O)c3ccc(O)cc3)cc2c1 (stereo not drawn) [N-[6-[[(2-Acetylamino)-1-oxopropyl]amino]-1,2-dihydro-2-oxo-3-quinolinylcarbonyl]amoxicillin] | 6.3 | 1.6 | 3.1 | 12.5 | 6.3 | 1.6 | 12.5 | 1.6 | 1.6 | 1.6 µg/mL
3 | CC(=O)NC(C)C(=O)Nc1ccc2c(=O)c(C(=O)NC(C(=O)NC3C(=O)N4C3SC(C)(C)C4C(=O)O)c3ccc(O)cc3)c[nH]c2c1 (stereo not drawn) [N-[7-[[2-(Acetylamino)-1-oxopropyl]amino]-1,4-dihydro-4-oxo-3-quinolinylcarbonyl]amoxicillin] | 3.1 | 0.8 | 0.8 | 6.3 | 3.1 | 0.2 | 6.3 | 1.6 | 1.6 | .6 µg/mL
4 | CC1(C)S[C@@H]2[C@H](NC(=O)[C@H](NC(=O)c3cc4cc(NC(=O)NCC(N)=O)ccc4[nH]c3=O)c3ccc(O)cc3)C(=O)N2[C@H]1C(=O)O [N-[3-[1,2-dihydro-2-oxo-6-(5-oxo-2-pyrrolidinyl)amino]-quinolinylcarbonyl]amoxicillin] | 3.1 | 1.6 |  |  |  |  |  | 1.6 | 1.6 | 
5 | N-[(-[[2-(Acetylamino)-1-oxopropl]amino]-1,4-dihydro-4-oxo-3-quinolinylcarbonyl]amoxicillin | 12.5 | 1.6 | 3.1 | 12.5 | 12.5 | 3.1 | 12.5 | 0.8 | 3.1 | .1 µg/mL
6 | CC(=O)N1CCCC1C(=O)Nc1ccc2[nH]cc(C(=O)NC(C(=O)NC3C(=O)N4C3SC(C)(C)C4C(=O)O)c3ccc(O)cc3)c(=O)c2c1 (stereo not drawn) [N-[6-[[(1-Acetyl-2-pyrrolidinyl)carbonyl]amino]-1,4-dihydro-4-oxo-3-quinolinylcarbonyl]amoxicillin] | 6.3 | 3.1 | 0.8 | 6.3 | 6.3 | 0.2 | 6.3 | 3.1 | 3.1 | 3.1 µg/mL
7 | CC(=O)N1CC(O)CC1C(=O)Nc1ccc2c(=O)c(C(=O)NC(C(=O)NC3C(=O)N4C3SC(C)(C)C4C(=O)O)c3ccc(O)cc3)c[nH]c2c1 (stereo not drawn) [N-[7-[[(1-Acetyl-4-hydroxy-2-pyrrolidinyl)carbonyl]-amino]-1,4-dihydro-4-oxo-3-quinolinecarbonyl]amoxicillin] | 6.3 | 1.6 | 0.8 | 12.5 | 12.5 | 3.1 | 6.3 | 3.1 | 3.1 | 3.1 µg/mL
8 | CC(=O)NC(C)C(=O)Nc1ccc2[nH]cc(C(=O)NC(C(=O)NC3C(=O)N4C3SC(C)(C)C4C(=O)O)c3ccc(O)cc3)c(=O)c2c1 (stereo not drawn) [N-[6-[[2-(Acetylamino)-1-oxopropyl]amino]-1,4-dihydro-4-oxo-3-quinolinylcarbonyl]amoxicillin] | 3.1 | 1.6 | 0.8 | 6.3 | 3.1 | 0.4 | 3.1 | 0.4 | 1.6 | 1.6 µg/mL
9 | CC(=O)N1CCCC1C(=O)Nc1ccc2[nH]c(=O)c(C(=O)NC(C(=O)NC3C(=O)N4C3SC(C)(C)C4C(=O)O)c3ccc(O)cc3)cc2c1 (stereo not drawn) [N-[6-[[(1-Acetyl-2-pyrrolidinyl)carbonyl]amino]-1,2-dihydro-2-oxo-3-quinolinylcarbonyl]amoxicillin] | 3.1 | 0.8 | 0.8 | 25 | 3.1 | 0.2 | 12.5 | 1.6 | 1.6 | 1.6 µg/mL
10 | CC1(C)SC2C(NC(=O)C(NC(=O)c3c[nH]c4ccc(NC(=O)C5CCC(=O)N5)cc4c3=O)c3ccc(O)cc3)C(=O)N2C1C(=O)O (stereo not drawn) [N-[1,4-Dihydro-4-oxo-6[[(5-oxo-2-pyrrolidinyl)carbonyl]-amino]-3-quinolinylcarbonyl]amoxicillin] | 3.1 | 1.6 | 1.6 | 12.5 | 6.3 | 1.6 | 6.3 | 3.1 | 3.1 | 1.6 µg/mL
11 | N-[1,4-Dihydro-4-oxo-7-[[(5-oxo-2-pyrrolidinyl)carbonyl]-amino]-3-quinolinylcarbonyl]amoxicillin | 3.1 | 0.8 | 0.8 | 3.1 | 3.1 | 0.4 | 1.6 | 0.8 | 0.4 | 3.1 µg/mL
12 | CC1(C)SC2C(NC(=O)C(NC(=O)c3c[nH]c4c(NC(=O)C5CCC(=O)N5)cccc4c3=O)c3ccc(O)cc3)C(=O)N2C1C(=O)O (stereo not drawn) [N-[1,4-Dihydro-4-oxo-8-[[(5-oxo-2-pyrrolidinyl)carbonyl]-amino]-3-quinolinylcarbonyl]amoxicillin] | 6.3 | 1.6 | 3.1 | 12.5 | 6.3 | 3.1 | 12.5 | 0.8 | 1.6 | 3.1 µg/mL
